# Measurements: patent US20040077080A1, “Compositions and methods for induction of proteins involved in xenobiotic metabolism” (priority 2000, published 2004)
# Where two headings read alike, the source gives them in different places.
# What was measured:
# [1] = system: PXR / mdr1(dr4) response element; assay: Hep-PXR/Pgp-Luc stable cell luciferase assay
# Protocol: (§1) FIG. 35 depicts dose-response behavior to various PXR activators in stable cell lines overexpressing PXR and harboring DR4 response element. FIG. 35A: Results are shown for the stable cell line Hep-PXR/PgpLuc. FIG. 35B: Results are shown for the stable cell line Caco-PXR/PgpLuc.
# (§2) Cells were exposed to the test compounds for 48 hours at the concentrations indicated.
# FIG. 36 depicts the effect of environmental and botanical chemicals on luciferase activity in the stable cell line Hep-PXR/PgpLuc. Cells were inoculated into 96-well plates at a density of 2×10^4 cells per well. After overnight recovery, cells were treated with the test compounds at the concentrations indicated for 48 hours.
# (§3) Establishment of stable transformants containing both PXR and reporter plasmid and development of high throughput bioassay for PXR-dependent transactivation: The stable transformants Hep-PXR/mdr1(dr4)-Luc and Caco-PXR/mdr1(dr4)-Luc cell lines were generated from the parental cell lines HepG-PXR and Caco-PXR, respectively, according to the following procedure. The parental cell lines HepG-PXR and Caco-PXR, which overexpress PXR, were stably transfected with the luciferase reporter plasmid mdr1(dr4)-Luc. The transfected cells were cultured in DMEM (HepG-PXR cells) or in IMEM (Caco-PXR cells), both media supplemented with 10% fetal bovine serum and neomycin (700 micrograms per milliliter).
# (§4) For the induction assay, stable transformants were seeded in 96-wells plates at a density of 1×10^4 cells per well and allowed to recover overnight. Plates were treated with test compounds at varying concentrations, using 3 replicates per dose. After 48 hours of exposure to the test compound, cells were washed with phosphate buffered saline, lysis buffer was applied to the wells, and luciferase substrate added. Following 10 minutes for light adaptation, luminescence was monitored according to the manufacturer's instructions (Packard kit, Biomed).
# CYP3A4 mRNA = conditions: human, 48 h, 25 µM
# Source text: (§5) FIG. 32A: Lanes 1 and 2, primary human hepatocytes; lanes 3 and 4, LS174T cells. FIG. 32B: Lanes 1 and 2, HepG2 cells; lanes 3 and 4, HepG2 that overexpress PXR (Hepg-PXR cells). FIG. 32C: Lanes 1 and 2, Caco-2; lanes 3 and 4, Caco-2 cells that overexpress PXR (Caco-PXR cells).
# (§6) Total RNA from the colon adenocarcinoma cell line LS174T was isolated and fractionated on a 1% formaldehyde gel and transferred onto a nylon membrane. The RNA blot was hybridized to ^32-P-labeled MDR1 cDNA probe (top panels), ^32-P-labeled CYP3A4 cDNA probe (middle panels), or 18s rRNA probe for normalization of RNA loading on the gel (bottom panels).
# (§7) FIG. 37 depicts MDR1 gene regulation in response to chrysin as studied by Northern blot analysis. […] Total RNA from the hepatocytes was isolated and fractionated on a 1% formaldehyde gel and transferred onto a nylon membrane. The RNA blot was hybridized to ^32-P-labeled MDR1 cDNA probe (top panels), ^32P-labeled CYP3A4 cDNA probe (middle panels), or 18s rRNA probe for normalization of RNA loading on the gel (bottom panels).
# Northern Blot analysis for MDR1 P-glycoprotein and CYP3A4 expression: Total RNA was prepared from cells (primary hepatocytes, LS174T, HepG2, or Caco-2) using Trizol reagent (Invitrogen, Carlsbad, Calif.). […]
# [2] = system: AhR (dioxin response elements); assay: in vitro; conditions: human, fold induction of luciferase activity above DMSO, DRE12-6 cells, 28 hours; TCDD 10 nanomoles per liter, omeprazole 25, 2-AAF 100, DMBA 20 micromoles per liter
# MDR1 P-glycoprotein mRNA = assay: Northern blot of MDR1 P-glycoprotein expression (Example VI)
# Source text: FIG. 31 depicts MDR1 gene expression in LS174T cells as analyzed by Northern blot. […] Total RNA from the colon adenocarcinoma cell line LS174T was isolated and fractionated on a 1% formaldehyde gel and transferred onto a nylon membrane. The RNA blot was hybridized to ^32P-labeled MDR1 cDNA probe (top panel) or 18s rRNA probe for normalization of RNA loading on the gel (bottom panel).
# as §5, §6, §7
# Northern Blot analysis for MDR1 P-glycoprotein and CYP3A4 expression: Total RNA was prepared from cells (primary hepatocytes, LS174T, HepG2, or Caco-2) using Trizol reagent (Invitrogen, Carlsbad, Calif.). For Northern blots, 15 micrograms of total RNA was fractionated on a 1% formaldehyde gel and transferred onto a nylon membrane by capillary transfer. A 530-base pair fragment of MDR1 cDNA was obtained from PCR cloning using the sense primer […] The resulting fragment was ^32P-labeled by random priming (Invitrogen, Carlsbad, Calif.) for use as an MDR1 probe. […] All constructs and cDNAs were subjected to sequence analysis. Hybridization was performed with the ExpressHyb system according to the manufacturer's instructions (Clontech, Palo Alto, Calif.).
# [3] = system: PXR / mdr1(dr4) response element; assay: Caco-PXR/Pgp-Luc stable cell luciferase assay
# Protocol: as §1, §2, §3, §4
# [4] = system: PXR / mdr1(dr4) response element; conditions: human, 48 h
# [5] = system: PXR / mdr1(dr4) response element; assay: Transient transfection mdr1(dr4)-Luc reporter assay with PXR; conditions: Caco-2 cells transiently co-transfected with mdr1(dr4)-Luc and PXR; 48 hours
smiles,measurement,setting,value
O=c1cc(-c2ccccc2)oc2cc(O)cc(O)c12 [chrysin],fold increase in luciferase activity,"[1]; human, 48 h",5 fold
same,CYP3A4 expression in primary hepatocytes (in words),CYP3A4 mRNA,induce the expression of both MDR1 and CYP3A4
same,fold induction,[2],4.2
same,MDR1 P-glycoprotein expression in primary human hepatocytes (in words),"MDR1 P-glycoprotein mRNA; human, 48 h, 25 µM",induce the expression of both MDR1 and CYP3A4
COc1ccc2[nH]c([S+]([O-])Cc3ncc(C)c(OC)c3C)nc2c1 (stereo not drawn) [omeprazole],dose dependence of luciferase induction (in words),[1],dose-dependent luciferase induction
same,dose dependence of luciferase induction (in words),[3],dose-dependent luciferase induction
same,fold increase in luciferase activity,[4],3-6 fold
"CC(=O)[C@H]1[C@H](C#N)C[C@H]2[C@@H]3CC=C4C[C@@H](O)CC[C@]4(C)[C@H]3CC[C@@]21C [PCN, pregnenolone 16 alpha-carbonitrile]",fold increase in luciferase activity,[5],only a minor increase
same,"fold increase in luciferase activity above DMSO, single concentrations (FIG. 14)",hPXR / CYP3A4 enhancer,less than two
same,CYP3A4 induction by Northern blot (in words),CYP3A4 mRNA (PXR),not
same,"fold increase in luciferase activity above DMSO, single concentrations (FIG. 15)",CYP3A4 enhancer (PXRE),less than one
same,MDR1 expression in LS174T cells (in words),"MDR1 P-glycoprotein mRNA; LS174T cells, 48 hours",only a slightly increase
